Calls of active or inactive are those of the source.
Tests used:
Candida albicans [1] = assay: Antifungal activity against Candida albicans SC5314 assessed as inhibition of fungal transformation from budded-to-hyphal-form at 1 uM after 24 hrs by microscopy; format: functional, organism-based
Candida albicans [2] = assay: Antifungal activity against Candida albicans SC5314 assessed as inhibition of fungal transformation from budded-to-hyphal-form at 2 uM after 24 hrs by microscopy; format: functional, organism-based
Candida albicans [3] = assay: Antifungal activity against Candida albicans SC5314 assessed as inhibition of fungal transformation from budded-to-hyphal-form at 4 uM after 24 hrs by microscopy; format: functional, organism-based
Candida albicans [4] = assay: Antifungal activity against Candida albicans SC5314 at 6.3 uM after 16 hrs by BacTiter-Glow assay; format: functional, organism-based
Candida albicans [5] = assay: Antifungal activity against Candida albicans K2 at 6.3 uM after 16 hrs by BacTiter-Glow assay; format: functional, organism-based
Candida albicans [6] = assay: Antifungal activity against Candida albicans clinical isolates at 6.3 uM after 16 hrs by BacTiter-Glow assay; format: functional, organism-based
Candida albicans [7] = assay: Antifungal activity against Candida albicans CBS 5983 at 6.3 uM after 16 hrs by BacTiter-Glow assay; format: functional, organism-based
Candida albicans [8] = assay: Antifungal activity against Candida albicans SC5314 at 32 uM after 16 hrs by BacTiter-Glow assay; format: functional, organism-based
Candida albicans [9] = assay: Antifungal activity against Candida albicans clinical isolates at 32 uM after 16 hrs by BacTiter-Glow assay; format: functional, organism-based
Candida albicans [10] = assay: Antifungal activity against Candida albicans CBS 5983 at 32 uM after 16 hrs by BacTiter-Glow assay; format: functional, organism-based
Candida albicans [11] = assay: Antifungal activity against Candida albicans K2 at 32 uM after 16 hrs by BacTiter-Glow assay; format: functional, organism-based
Candida albicans [12] = assay: Antifungal activity against Candida albicans K2 at 4.3 uM after 16 hrs by BacTiter-Glow assay relative to untreated control; format: functional; conditions: pooled result: one value given for 4 cell lines, strains, targets or settings
Candida albicans [13] = assay: Antifungal activity against Candida albicans SC5314 at 4.15 uM after 16 hrs by BacTiter-Glow assay relative to untreated control; format: functional
Candida albicans [14] = assay: Antifungal activity against Candida albicans clinical isolates at 4.15 uM after 16 hrs by BacTiter-Glow assay relative to untreated control; format: functional
Candida albicans [15] = assay: Antifungal activity against Candida albicans CBS 5983 at 4.15 uM after 16 hrs by BacTiter-Glow assay relative to untreated control; format: functional
Candida albicans [16] = assay: Antifungal activity against Candida albicans K2 at 4.15 uM after 16 hrs by BacTiter-Glow assay relative to untreated control; format: functional
Candida albicans [17] = assay: Antifungal activity against Candida albicans K2 at 4.1 uM after 16 hrs by BacTiter-Glow assay; format: functional, organism-based
Candida albicans [18] = assay: Antifungal activity against Candida albicans clinical isolates at 4.1 uM after 16 hrs by BacTiter-Glow assay; format: functional, organism-based
Candida albicans [19] = assay: Antifungal activity against Candida albicans clinical isolates at 4 uM after 16 hrs by BacTiter-Glow assay; format: functional, organism-based
Candida albicans [20] = assay: Antifungal activity against Candida albicans K2 at 4 uM after 16 hrs by BacTiter-Glow assay; format: functional, organism-based
Candida albicans [21] = assay: Antifungal activity against Candida albicans CBS 5983 at 4.1 uM after 16 hrs by BacTiter-Glow assay; format: functional, organism-based
Candida albicans [22] = assay: Antifungal activity against Candida albicans CBS 5983 at 4 uM after 16 hrs by BacTiter-Glow assay; format: functional, organism-based
Candida albicans [23] = assay: Antifungal activity against Candida albicans SC5314 at 4.1 uM after 16 hrs by BacTiter-Glow assay; format: functional, organism-based
Candida albicans [24] = assay: Antifungal activity against Candida albicans SC5314 at 4 uM after 16 hrs by BacTiter-Glow assay; format: functional, organism-based
Candida albicans [25] = assay: Antifungal activity against Candida albicans clinical isolates at 24.3 uM after 16 hrs by BacTiter-Glow assay; format: functional, organism-based
Candida albicans [26] = assay: Antifungal activity against Candida albicans SC5314 at 24.3 uM after 16 hrs by BacTiter-Glow assay; format: functional, organism-based
Candida albicans [27] = assay: Antifungal activity against Candida albicans CBS 5983 at 24.3 uM after 16 hrs by BacTiter-Glow assay; format: functional, organism-based
Candida albicans [28] = assay: Antifungal activity against Candida albicans K2 at 24.3 uM after 16 hrs by BacTiter-Glow assay; format: functional, organism-based

Measured: Activity

CC[C@H](C)[C@H](NC(=O)[C@H](C)NC(=O)CNC(=O)[C@H](C)NC(=O)[C@H](CCC(=O)O)NC(=O)[C@H](CCCCN)NC(=O)[C@H](CC(C)C)NC(=O)[C@H](Cc1cnc[nH]1)NC(=O)[C@H](CC(C)C)NC(=O)[C@H](Cc1ccccc1)NC(=O)[C@H](CO)NC(=O)[C@H](CC(C)C)NC(=O)[C@H](Cc1ccccc1)NC(=O)[C@H](CCC(=O)O)NC(=O)[C@@H](NC(=O)[C@@H](NC(=O)[C@@H](NC(=O)[C@H](CCCNC(=N)N)NC(=O)[C@H](CCSC)NC(=O)[C@@H](NC(=O)[C@H](CC(N)=O)NC(=O)[C@H](CC(N)=O)NC(=O)[C@H](CCC(=O)O)NC(=O)[C@@H]1CCCN1C(=O)[C@@H](NC(=O)[C@H](CO)NC(=O)[C@H](CCCNC(=N)N)NC(=O)[C@H](CC(=O)O)NC(=O)[C@H](Cc1ccccc1)NC(=O)[C@H](CO)NC(=O)CNC(=O)[C@@H]1CCCN1C(=O)[C@H](CCCCN)NC(=O)[C@H](CCSC)NC(=O)[C@H](CC(=O)O)NC(=O)[C@H](CC(=O)O)NC(=O)[C@H](CCC(=O)O)NC(=O)[C@@H]1CCCN1C(=O)[C@H](CCCNC(=N)N)NC(=O)[C@H](CC(C)C)NC(=O)[C@@H](N)CCC(=O)O)[C@@H](C)CC)[C@@H](C)CC)[C@H](C)O)[C@@H](C)CC)[C@@H](C)CC)C(=O)O
active: Candida albicans [2] | Candida albicans [3]
inactive: Candida albicans [1]

CC[C@H](C)[C@H](NC(=O)[C@H](C)NC(=O)[C@H](Cc1c[nH]cn1)NC(=O)[C@@H]1CCCN1C(=O)CNC(=O)[C@H](CC(C)C)NC(=O)[C@H](CC(C)C)NC(=O)[C@H](Cc1ccc(O)cc1)NC(=O)CNC(=O)[C@H](C)NC(=O)[C@H](CO)NC(=O)[C@H](CC(N)=O)NC(=O)[C@H](CC(C)C)NC(=O)[C@@H](NC(=O)[C@H](Cc1c[nH]c2ccccc12)NC(=O)CN)[C@@H](C)O)C(=O)N[C@@H](CC(=O)O)C(=O)N[C@@H](CC(N)=O)C(=O)N[C@@H](Cc1c[nH]cn1)C(=O)N[C@@H](CCCNC(=N)N)C(=O)N[C@@H](CO)C(=O)N[C@@H](Cc1ccccc1)C(=O)N[C@@H](Cc1c[nH]cn1)C(=O)N[C@@H](CC(=O)O)C(=O)N[C@@H](CCCCN)C(=O)N[C@@H](Cc1ccc(O)cc1)C(=O)NCC(=O)N[C@@H](CC(C)C)C(=O)N[C@@H](C)C(N)=O
inactive: Candida albicans [4] | Candida albicans [5] | Candida albicans [6] | Candida albicans [7]

OC(Cn1cncn1)(Cn1cncn1)c1ccc(F)cc1F
active: Candida albicans [8] | Candida albicans [9] | Candida albicans [10] | Candida albicans [11]

H-ELRPEDDMKPGSFDRSIPENNIMRTIIEFLSFLHLKEAGAL-OH
48.7%: Candida albicans [12]

H-GIGKFLHSAGKFGKAFVGEIMKS-OH [MAGAININ I]
>90%: Candida albicans [13] | Candida albicans [14] | Candida albicans [15] | Candida albicans [16]

H-LQSEDKAIRTIMEFLAFLHLKEAGAL-OH
active: Candida albicans [17] | Candida albicans [18] | Candida albicans [19] | Candida albicans [20] | Candida albicans [21] | Candida albicans [3] | Candida albicans [22] | Candida albicans [23] | Candida albicans [24]

H-PENNIMRTIIEFLSFLHLKEAGAL-OH
inactive: Candida albicans [25] | Candida albicans [26] | Candida albicans [27] | Candida albicans [28]

H-SIPENNIMRTIIEFLSFLHLKEAGAL-OH
active: Candida albicans [17] | Candida albicans [18] | Candida albicans [19] | Candida albicans [20] | Candida albicans [21] | Candida albicans [2] | Candida albicans [3] | Candida albicans [22] | Candida albicans [23] | Candida albicans [24]
inactive: Candida albicans [1]
